Measured values as given in patent EP3685668B1, “COMPOSITION COMPRISING ACIBENZOLAR-S-METHYL AS EFFECTIVE INGREDIENT FOR CONTROLLING BURSAPHELENCHUS XYLOPHILUS DISEASE AND METHOD FOR CONTROLLING BURSAPHELENCHUS XYLOPHILUS USING SAME” (Industry Foundation of Chonnam National University, priority 2017, dated 2019).

Legend:
Assay in all cases: qRT-PCR expression of induced resistance gene in pine tree callus
Format in all cases: cell-based
Settings in all cases: 200 µg/mℓ, 24 hours
Antipeptide = system: Antipeptide
Description: (§1) For in vitro analysis of induced resistance, the expression of PR genes and other plant defense-related genes was determined, which are evolved in various defense mechanisms including induced resistance. The primers of sixteen induced resistance-related genes of pine tree used in this invention were listed in the below and elongation factor_1 alpha were used as a reference gene. [Table 4] The primer list of defense resistance-related genes
(§2) After the treatment with 200 µg / mℓ of candidates of the selected induced resistance material, expression of the induced resistance-related gene in pine callus was determined by qRT-PCR using the primer pairs of defense resistance-related genes in Table 4. As a candidate group of an induced resistance material in pine tree, acibenzolar-S-methyl (ASM), TDL (Tiadinil), ITL (Isotianil), PBZ (Probenzole), AZO (Azoxystrobin), VMA (Validamycin A), MeJA (Methyl jasmonate), BABA (DL-3-aminobutyric acid), 2,3-BDO (2,3-Butanediol), GABA (r-Aminobutyric acid), glucan (Glucan), ER (Ergosterol), and AZA (Azelaic acid) were used. For the in vitro analysis of the expression of induced resistance gene in pine callus, the selected induced resistance materials were applied with 500 µℓ of LM liquid medium on a surface of pine tree callus (100 mg) in 12-well microplate to give final concentration of 200 µg/mℓ. Then, the callus surface was sufficiently reacted for 24 hours with the candidate of pine tree induced resistance material by shaking at 50 rpm in a 25 °C shaking incubator under dark condition. RNAs were extracted from the callus after completion of the reaction with an induced resistance material, followed by synthesis of cDNAs. Then, by carrying out qRT-PCR, the expression of induced resistance genes was determined. [Table 5] Expression of induced resistance gene in pine tree callus by TDL, PBZ, ASM, ITL, AZO, VMA, glucan, and AZA
(§3) Based on the results of assay using young plants and gene expression by selected induce resistance materials, it seemed that acibenzolar-S-methyl had the most excellent effect. Thus, the following tests were carried out using acibenzolar-S-methyl only. Expression of the induced resistance genes at different culture time after the chemical treatment was examined. For the in vitro assay, LM medium containing pine tree callus was treated with acibenzolar-S-methyl at concentration of 200 µg / mℓ, followed by reaction for 1 day, 7 days, or 14 days in a 25°C shaking incubator under dark condition. RNAs were extracted from the callus after the reaction followed by synthesis of cDNAs. Then, by carrying out qRT-PCR, the expression of the induced resistance genes was determined. Depending on reaction time after the treatment, i.e., after 1 day, 7 days, or 14 days, the expression of the obtained induced resistance genes was examined. As a result of the in vitro callus assay depending on reaction time after the treatment with acibenzolar-S-methyl, the expression of the induced resistance-related genes is the highest at 1 day after the treatment with acibenzolar-S-methyl and gradually diminished over time, as it is shown in Table 7. In this regard, it is contemplated that the expression of genes acquired by acibenzolar-S-methyl is not maintained in highly expressed state until the pathogen invasion and just memorized with at minimum level so that the energy consumption by plant can be efficiently managed. [Table 7] Expression of induced resistance gene in pine tree callus by acibenzolar-S-methyl depending on reaction time
(§4) To have an in vitro assay according to different methods of treatment with acibenzolar-S-methyl, two separate treatment methods, i.e., surface treatment (spraying treatment) of pine tree callus and direct application of the induced resistance material to an LM medium containing pine tree callus, were performed. […]

Extensin = system: Extensin
Description: as §1, §2, §3, §4

Heat shock 70 = system: Heat shock 70
Description: as §1, §2, §3, §4

Hydroxyproline = system: Hydroxyproline
Description: as §1, §2, §3, §4

Metallothionein = system: Metallothionein
Description: as §1, §2, §3, §4

PR_10 family = system: PR_10 family
Description: as §1, §2, §3, §4

PR_1b family = system: PR_1b family
Description: as §1, §2, §3, §4

PR_2 family = system: PR_2 family
Description: as §1, §2, §3, §4

PR_3 family class 1 = system: PR_3 family class 1
Description: as §1, §2, §3, §4

PR_3 family class 4 = system: PR_3 family class 4
Description: as §1, §2, §3, §4

PR_4 family = system: PR_4 family
Description: as §1, §2, §3, §4

PR_5 family = system: PR_5 family
Description: as §1, §2, §3, §4

PR_9 family = system: PR_9 family
Description: as §1, §2, §3, §4

Xyloglucan = system: Xyloglucan
Description: as §1, §2, §3, §4

Structure (SMILES)	Expression of induced resistance gene, Antipeptide (Antipeptide)	Expression of induced resistance gene, Extensin (Extensin)	Expression of induced resistance gene, Heat shock 70 (Heat shock 70)	Expression of induced resistance gene, Hydroxyproline (Hydroxyproline)	Expression of induced resistance gene, Metallothionein (Metallothionein)	Expression of induced resistance gene, PR_10 family (PR_10 family)	Expression of induced resistance gene, PR_1b family (PR_1b family)	Expression of induced resistance gene, PR_2 family (PR_2 family)	Expression of induced resistance gene, PR_3 family class 1 (PR_3 family class 1)	Expression of induced resistance gene, PR_3 family class 4 (PR_3 family class 4)	Expression of induced resistance gene, PR_4 family (PR_4 family)	Expression of induced resistance gene, PR_5 family (PR_5 family)	Expression of induced resistance gene, PR_9 family (PR_9 family)	Expression of induced resistance gene, Xyloglucan (Xyloglucan)
O=C(O)CCCCCCCC(=O)O [AZA, Azelaic acid]	1.43	1.15	1.42	0.9	1.97	1.16	1.15	1.02	1.12	1.16	0.99	1.45	1.27	0.76
CO/C=C(/C(=O)OC)c1ccccc1Oc1cc(Oc2ccccc2C#N)ncn1 [AZO, Azoxystrobin]	0.69	2.01	0.38	1.11	0.14	1.4	1.66	1.8	1.11	1.01	2.04	1.52	1.92	1.93
CC(C)[C@@H](C)/C=C/[C@@H](C)[C@H]1CC[C@H]2C3=CC=C4C[C@@H](O)CC[C@]4(C)[C@H]3CC[C@]12C [ER, Ergosterol]	2.11	1.06	1.91	1.42	1.37	1.21	1.14	1.17	1.06	0.81	1.13	1.05	1.35	1.05
NCCCC(=O)O [GABA, r-Aminobutyric acid]	1.13	1.83	2.58	5.98	0.92	1.57	1.78	1.66	3.07	8.75	1.95	3.78	0.7	3.46
N#Cc1ccccc1NC(=O)c1snc(Cl)c1Cl [ITL, Isotianil]	0.75	1.39	0.43	0.72	0.09	1	1.77	1.48	0.95	0.81	1.39	0.95	1.88	0.97
CC/C=C\CC1C(=O)CCC1CC(=O)OC (stereo not drawn) [MeJA, Methyl jasmonate]	0.43	0.93	0.69	0.53	0.21	1.34	0.5	0.47	0.54	0.79	5.86	0.95	0.47	0.44
C=CCOC1=NS(=O)(=O)c2ccccc21 [PBZ, Probenzole]	1.11	1.62	0.73	1.21	0.25	2.08	0.26	0.46	1.04	0.74	0.46	1.99	2.52	1.41
Cc1ccc(NC(=O)c2snnc2C)cc1Cl [TDL, Tiadinil]	0.64	1.05	0.29	0.97	0.1	1.19	1.05	0.98	0.82	1.22	1.24	1.33	1.48	1.23
OCC1=C[C@@H](N[C@H]2C[C@H](CO)[C@@H](O[C@H]3O[C@@H](CO)[C@H](O)[C@@H](O)[C@@H]3O)[C@H](O)[C@H]2O)[C@H](O)[C@@H](O)[C@@H]1O [VMA, Validamycin A]	2.36	0.66	2.19	2.31	0.99	1.56	0.73	0.83	1.67	2.95	1.43	4.66	1.37	1.99
